Measured values as given in the SangsterLogP compilation.

Assay: method code SF-HPLC, from DOI: 10.1002/qsar.200300824

| Structure (SMILES) | logP |
| --- | --- |
| CC(=O)ON=C(N)c1cc(=O)oc2ccccc12 | 1 |
| O=c1oc2ccccc2c(C(=NO)NC2CCCCC2)c1Cl | 2.78 |
| O=c1oc2ccccc2c(C(=NO)Nc2ccccc2)c1Cl | 2.58 |
| COc1ccc(-c2nc(-c3cc(=O)oc4ccccc34)no2)cc1 | 2.98 |
| CC1NC(c2cc(=O)oc3ccccc23)=NO1 (stereo not drawn) | 1.93 |
| O=c1cc(-c2noc(-c3ccccc3)n2)c2ccccc2o1 | 3.22 |
| COc1ccc(C2=NOC(c3cc(=O)oc4ccccc34)O2)cc1 (stereo not drawn) | 3.04 |
| O=c1cc(C2=NOCN2c2ccccc2)c2ccccc2o1 | 2.45 |
| O=c1oc2ccccc2c(C(CCO)=NO)c1Cl | 0.22 |
| O=c1cc(C=NNc2ccccc2)c2ccccc2o1 | 3.63 |
| O=c1cc(-c2ncon2)c2ccccc2o1 | 1.95 |
| O=c1cc(C2=NOS(=O)N2c2ccccc2)c2ccccc2o1 (stereo not drawn) | 2.16 |
| COc1ccc(-c2noc(-c3cc(=O)oc4ccccc34)n2)cc1 | 3.07 |
| Cc1ccc(NC(=NO)c2c(Cl)c(=O)oc3ccccc23)cc1 | 2.89 |
| Cc1nc(-c2cc(=O)oc3ccccc23)no1 | 2.12 |
| O=c1cc(-c2noc(=S)n2-c2ccccc2)c2ccccc2o1 | 3.03 |
| O=c1cc(C2=NOCN2)c2ccccc2o1 | 1.98 |
| CC1ON=C(c2cc(=O)oc3ccccc23)N1c1ccccc1 (stereo not drawn) | 2.7 |
